Source: ChEMBL document CHEMBL1221193, “Deconstructing fragment-based inhibitor discovery” (Nat Chem Biol, 2006)

Biological target: Beta-lactamase (Escherichia coli K-12, UniProt P00811)
Experiment: Inhibition of Escherichia coli AmpC assessed as nitrocefin hydrolysis by UV-Vis spectrophotometry

Beta-lactamase, sequence (P00811 whole entry): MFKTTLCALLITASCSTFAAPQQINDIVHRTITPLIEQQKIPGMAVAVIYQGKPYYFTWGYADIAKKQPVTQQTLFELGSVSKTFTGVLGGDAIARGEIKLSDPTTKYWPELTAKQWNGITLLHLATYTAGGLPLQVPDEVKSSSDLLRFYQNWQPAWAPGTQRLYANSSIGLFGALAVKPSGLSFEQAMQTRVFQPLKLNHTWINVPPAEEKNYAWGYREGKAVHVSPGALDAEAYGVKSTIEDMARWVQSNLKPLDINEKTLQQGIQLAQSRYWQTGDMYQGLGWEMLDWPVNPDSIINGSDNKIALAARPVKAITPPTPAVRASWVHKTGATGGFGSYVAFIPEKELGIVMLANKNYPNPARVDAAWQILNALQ

| SMILES | Ki |
| --- | --- |
| O=C(O)c1ccc(NS(=O)(=O)c2ccsc2C(=O)O)c(O)c1 | 0.001 mM |
| CS(=O)(=O)Nc1ccc(C(=O)O)cc1 | 10 mM |
| O=C(O)c1cccs1 [THIOPHENE CARBOXYLIC ACID] | 40 mM |
